What was measured:
[1] = test system: cyclooxygenase-2 (COX-2); assay: Western blot of COX-2 in M5 tumors; assay type: in vivo, BALB/c nude mice; conditions: vs control group
Protocol: The mice were observed daily for clinical signs, weighed them every three days, and at one month after tumor-cell implantation euthanized them with an overdose of anesthetic combined with carbon dioxide. Immediately before sacrificing the mice, the blood was collected from them under anesthesia for hematological assessment. After euthanizing the mice, the tumors were excised immediately. The tumor specimens were divided into two groups. One group was treated with 10% formalin and embedded the specimens in paraffin. These specimens were investigated by hematoxylin and eosin staining; terminal deoxyribonucleotidyl transferase (TdT)-mediated biotin-16-dUTP nick-end labeling (TUNEL assay; APO-BrdU TUNEL Assay Kit, BD Pharmingen, San Diego, CA, USA); and IHC for IL-1β, TNF-α, TGF-β, and CD44, using primary antibodies against these factors (Merck, Billerica, MA, USA). Protein expression was assessed via IHC with the TAlink mouse/rabbit polymer detection system produced by BioTnA (Kaohsiung, Taiwan). […]
Western blotting on the second group of tumor specimens was performed according to standard protocol (Wu et al 2020). […] Protein expression and phosphorylation were quantified with ImageJ (National Institutes of Health, Bethesda, […], USA).

[2] = test system: M5 canine melanoma tumor; assay: TUNEL/DAPI assay of apoptosis in excised M5 tumors; assay type: in vivo, BALB/c nude mice; conditions: cisplatin 2 mg/kg, PTS 100 mg/kg IP three times per week
Protocol: The mice were observed daily for clinical signs, weighed them every three days, and at one month after tumor-cell implantation euthanized them with an overdose of anesthetic combined with carbon dioxide. Immediately before sacrificing the mice, the blood was collected from them under anesthesia for hematological assessment. After euthanizing the mice, the tumors were excised immediately. The tumor specimens were divided into two groups. One group was treated with 10% formalin and embedded the specimens in paraffin. These specimens were investigated by hematoxylin and eosin staining; terminal deoxyribonucleotidyl transferase (TdT)-mediated biotin-16-dUTP nick-end labeling (TUNEL assay; APO-BrdU TUNEL Assay Kit, BD Pharmingen, San Diego, CA, USA); and IHC for IL-1β, TNF-α, TGF-β, and CD44, using primary antibodies against these factors (Merck, Billerica, MA, USA). Protein expression was assessed via IHC with the […] mouse/rabbit polymer detection system produced by BioTnA (Kaohsiung, Taiwan). A high-resolution digital microscope (Moticam 2300, Motic Instruments, Richmond, Canada) equipped with Motic Images Plus (version 2.0) was used to capture and analyze the images. The other groups of tumor specimens were first minced coarsely and homogenized, and then stored in a freezer at -80° C.

[3] = test system: M5 canine melanoma tumor; assay: M5 canine melanoma tumor growth in implanted mice; assay type: in vivo, BALB/cByJNarl mice; conditions: cisplatin 2 mg/kg; for Tumor mass: after excision from sacrificed mice, IP three times per week, PTS 100 mg/kg, mean ± SD; for Tumor mass reduction (%): relative to the control, PTS 100 mg/kg IP three times per week
Protocol: Male BALB/cByJNarl mice at six-weeks of age were obtained from National Laboratory Animal Breeding and Research Center, Taipei, Taiwan. Two mice were housed in each cage and provided them with sterile food and water. The mice were maintained under a constant temperature (22±2° C.) and relative humidity (55±5%), with a 12:12 h light:dark cycle. The Institutional Animal Care and Use Committee (IACUC) at the National […] University (IACUC Approval No.110003) reviewed and approved the study protocol, in which procedures were in accordance with the Guidelines for the Care and Use of Laboratory Animals published by the Taiwanese Ministry of Health and Welfare. The M5 canine melanoma cell line was obtained from the School of Veterinary Medicine at National Taiwan University. The cells were cultured in a humidified atmosphere (95% air, 5% CO2) at 37° C. in 90% high-glucose Dulbecc's Modified Eagle Medium supplemented with 5% fetal bovine serum, 50 IU/ml of penicillin, and […] of streptomycin (Gibco Laboratories, Grand Island, NY, USA). The cells were routinely passaged by removing the medium and overlaying the cell monolayer with 0.25% trypsin and 0.1% ethylenediaminetetraacetic acid. The experimental treatments were commenced after the implanted M5 cells had formed a detectable tumor mass, which was assessed on day 7 after implantation. Briefly, the mice were anesthetized via intraperitoneal injection of Zoletil (Virbac Taiwan, Taipei, Taiwan), and then subcutaneously injected 100 μl of cell suspension containing 10^7 viable M5 cells into a posterior leg. […] All treatments were administered via intraperitoneal injection. The control group received saline daily, while the three treatment groups received their corresponding treatments three times per week. The cisplatin group received 2 mg/kg cisplatin (Sigma; St. Louis, MO, USA). The PTS group was administered with 100 mg/kg PTS (Gongwin Biopharm Holding, Taipei, Taiwan). The cisplatin+PTS group received 100 mg/kg PTS and 2 mg/kg cisplatin. The dosage of cisplatin was selected such that this drug affects apoptosis, invasion, metastasis, angiogenesis, and the growth signal mechanisms in canine melanoma implanted in mice. […] The growth of the tumors was assessed every seven days by measuring their largest and smallest diameters, and calculated their volume according to the following formula: […] The mice were observed daily for clinical signs, weighed them every three days, and at one month after tumor-cell implantation euthanized them with an overdose of anesthetic combined with carbon dioxide. […] Protein expression was assessed via IHC with the […] mouse/rabbit polymer detection system produced by BioTnA (Kaohsiung, Taiwan). […]

Row | Structure (SMILES) | Expression of cyclooxygenase-2 (COX-2) [1] | TUNEL-positive cell count as multiple of the control [2] [times] | Tumor mass [3] [g] | Tumor mass reduction (%) [3] [%]
1 | N.N.[Cl][Pt][Cl] [Cisplatin, cisplatin, reference compound] | lower | 3.9 | 1.37 ± 0.25 | 48.7
2 | Cc1ccc(S(N)(=O)=O)cc1 [PTS, p-Toluenesulfonamide] | lower | 3.5 | 1.48 ± 0.33 | 44.2

— US12409158B2, “Combination therapy for treating cancer” (GONGWIN BIOPHARM CO., LTD, priority 2022, dated 2025)
